Measurements from patent publication US5976523A, “Method for healing compromised tissues using pyrimidine derivatives” (Mitsui Pharmaceuticals, Inc., priority 1995, dated 1999).
Structures can show the parent of a compound that is named as a salt.

Tests used:
[1] = system: primary cultured gastric mucosal cells; experiment: Wound repair model with primary cultured gastric mucosal cells; format: cell-based, rabbit
Procedure: Primary cultured gastric mucosal cells were prepared by mechanically peeling and mincing the gastric mucosa of a rabbit having a body weight of 2 kg and then digesting the minced gastric mucosa with 0.07% collagenase. The primary cultured gastric mucosal cells were cultured at a cell concentration of 3.3×10^5 cells/ml in F-12 culture medium containing 10% fetal calf serum added therein. For this cultivation, a culture dish (60 mm in diameter) coated with collagen type I was used. […] Using an anti-BrdU antibody, the cells in the S phase were stained to identify proliferated cells.
Their effects on the process of restoration were measured under the above-described parameters. […] In each of the control group and the medicament-added groups, the area of the wounded region was measured at the 0th hour, 12th hour, 24th hour, 36th hour and 48th hour. The measurement results will be given in this order.
The control group and the groups added with the medicament at the respective concentrations were each subjected to the experiment with n=5. The results will each be presented as a (mean±S. D.) mm2. A test of significance was conducted relative to the control group. * stands for p<0.05, ** for p<0.01, *** for p<0.001. A further test of significance was conducted relative to a group added with 10 ng/ml of EGF. + stands for p<0.05, and ++ for <0.01.

Ito (star) cells = experiment: DNA and collagen synthesis and αSM expression in Ito (star) cells; format: cell-based, SD rat
Source text: (§1) As fulminant hepatitis may develop hepatocellular regeneration failure despite a high HGF concentration in blood, use of a medicament capable of enhancing effects of a growth factor is desired. Activities of a compound according to the present invention as a hepatic medicine were investigated using primary cultured cells and Ito (star) cells of rat.
On the other hand, an SD male rat of about 300 g in body weight was sacrificed by perfusion of physiological saline containing collagenase and proteinase. Ito (star) cells were collected and then spread at 1.25×10^5 cells/cm^2 over plates, followed by the initiation of cultivation. The cultivation was conducted for 6 days. In a manner similar to the procedures described above, some of the plates were added with the invention compound and [^3 H]-leucine 24 hours before harvest, while the remaining plates were added with the invention compound 24 hours before harvest and were then added with [^3 H]-tymidine two hours before the harvest. The synthesized amount of DNA and that of proteins were measured. Further, after Ito cells were cultured for 6 days, the invention compound and b-FGF were added. Subsequent to cultivation for 30 minutes, […] of ascorbic acid and 0.5 mM of β-aminopropionitrile fumarate were added, followed by cultivation for 1 hour. [2,3-^3 H]-proline (10 μCi/ml) was added, followed by further cultivation for 24 hours. The culture was separated into the culture medium and the resultant cells, and a TCA precipitate was formed. After the precipitate was dissolved with 0.1N NaOH, the cells were incubated in the presence of bacterial collagenase. The reaction was terminated with TCA-tannic acid, followed by the formation of a pellet. A supernatant fraction was added to the liquid scintillator and the amount of proteins synthesized by the cells was measured by the liquid scintillation counter.

hepatocytes = experiment: DNA and protein synthesis in primary cultured hepatocytes; format: cell-based, SD rat
Source text: as §1
An SD male rat of about 200 g in body weight was sacrificed by perfusion of collagenase-containing physiological saline. Hepatocytes were immediately collected and then spread at 5.0×10^4 cells/cm^2 over plates, followed by the initiation of cultivation. Two hours later, the culture medium was replaced by a fresh supply of the culture medium. Twenty-four hours later, EGF and [^3 H]-leucine (1 μCi/ml) were added to half the number of the plates with or without addition of 2-piperidino-7-methyl-6-oxo-5,6-dihydro(7H)pyrro[2,3-d]pyrimidine maleate, respectively. At the same time, EGF was added to the remaining plates with or without addition of the invention compound, respectively. Forty-six hours later, the latter plates were both added further with [^3 H]-tymidine (2 μCi/ml). Forty-eight hours later, each culture was filtered under suction to harvest the cells so cultivated. Trichloroacetic acid (TCA) was added to the thus-harvested cells to obtain a TCA precipitate. The TCA precipitate was formed into a pellet. The pellets which had been obtained from the [^3 H]-tymidine-added cultures, respectively, were each dissolved with 0.1N NaOH. The resulting solution was added to a liquid scintillator and the amount of DNA synthesized by the cells was measured by a liquid scintillation counter. Likewise, the pellets which had been obtained from the [^3 H]-leucine-added cultures, respectively, were each boiled at 70° C. to extract soluble matter. The extract so obtained was also added with TCA to obtain a TCA precipitate. The TCA precipitate was dissolved with 0.1N NaOH. The resulting solution was added to the liquid scintillator and the amount of proteins synthesized by the cells was measured by the liquid scintillation counter.

[2] = system: CAMs (chorioallantoic membranes); experiment: Angiogenesis on chorioallantoic membranes (CAM); format: in vivo, chick; conditions: day 3
Procedure: For a bFGF, various assay systems assessing the angiogenesis activity of the bFGF as an index are usable. The shells of chick embryos are fenestrated centrally corresponding to the air spaces thereof, whereby the chorioallantoic membranes (CAMS) are exposed. Solutions of the bFGF and a test medicament at various concentrations were applied onto the respective CAMs. Incubation was continued. Several days later, the degrees of angiogenesis were investigated under a microscope. This method is preferably employed. […] The test medicament is therefore found to be useful for the reduction of a time required for the construction of a skin-equivalent tissue. […] Also with respect to a VEGF, its angiogenesis activity can be assayed in a similar system.
The shells of eggs on the 10th day after fertilization were fenestrated centrally corresponding to air spaces thereof, whereby CAMs (chorioallantoic membranes) were exposed. A nylon film in the form of a square of 3 mm in side was placed over the CAM, and onto the nylon film, a solution of bFGF as a growth and/or differentiation factor or the pyrimidine compound according to the present invention was dropped in an amount of 8 ul. Incubation was continued at 38° C. On the 72nd hour, the eggs were moved to a cool place controlled at 4° C. After the eggs were left over for 2 to 3 hours there, the degree of angiogenesis in each egg was investigated under a microscope. The angiogenesis was determined based on the number of radial blood vessels equal to or larger than 0.1 mm in diameter. Onto the nylon disk placed over the CAMS, 1, 10, and 100 ng/ml solutions of recombinant human bFGF (product of Genzyme Corporation) in physiological saline and 0.01 to 1 mM solutions of the individual pyrimidine compound in physiological saline were applied singly or in combination.

bone defect (tibia) = experiment: Rat bone defect model, formation of hyaline cartilage matrix; format: in vivo; conditions: bFGF (0.5 μg) pellet, 7th day
Source text: Action of 2-piperazino-6-methyl-5-oxo-5,6-dihydro(7H)pyrro[3,4-d]pyrimidinemaleate on in vivo chondrogenesis was studied in detail by preparing a rat bone defect model which permits observation of bFGF-derived formation of a hyaline cartilage matrix. Embedment of a bFGF-containing pellet in a bone defect of the model permits easy observation of formation of a hyaline cartilage matrix under the periosteum around the bone defect. Rats were divided into three groups. The rats in one of the groups were each embedded in a formed bone defect (diameter: 2.6 mm) thereof with a hydroxyethyl methacrylate pellet (10 mg) which contained bFGF (0.5 μg). The rats in another one of the groups were each embedded likewise with a hydroxyethyl methacrylate pellet (10 mg) which contained bFGF (0.5 μg) and the invention compound (0.5 mg). The rats in the remaining group, that is, a control group were each embedded similarly with a pellet which contained physiological saline. After the rats in all the three groups were sacrificed seven days later, action of bFGF or the invention compound on the process of chondrogenesis on enchondral ossification around the bone defect was investigated. On the 7th day after the formation of the bone defect, the tibia of each rat was histologically examined around the bone defect.

[3] = 1 μM to 100 μM, irrespective of b-FGF

**Q.** How did the “area of the wounded region (mean±S.D.)” value ([1]; EGF + 0.01 mM compound, 0th hour) turn out when `CN1C(=O)Cc2cnc(N3CCCCC3)nc21` [Compound A, 2-piperidino-7-methyl-6-oxo-5,6-dihydro(7H)pyrro[2,3-d]pyrimidine maleate] was run?
**A.** 2.06±0.05 mm2

**Q.** And the “area of the wounded region (mean±S.D.)” value ([1]; EGF + 0.01 mM compound, 12th hour)?
**A.** 0.72±0.36 mm2

**Q.** What about the “area of the wounded region (mean±S.D.)” value ([1]; EGF + 0.01 mM compound, 24th hour) of the same compound?
**A.** 0.39±0.04 mm2

**Q.** And the “area of the wounded region (mean±S.D.)” value ([1]; EGF + 0.01 mM compound, 36th hour)?
**A.** 0.05±0.04 mm2

**Q.** And the “area of the wounded region (mean±S.D.)” value ([1]; EGF + 0.01 mM compound, 48th hour)?
**A.** 0 mm2

**Q.** What about the “area of the wounded region (mean±S.D.)” value ([1]; EGF + 0.1 mM compound, 0th hour) of the same compound?
**A.** 2.08±0.08 mm2

**Q.** What about the “area of the wounded region (mean±S.D.)” value ([1]; EGF + 0.1 mM compound, 12th hour) of the same compound?
**A.** 0.80±0.04 mm2

**Q.** What about the “area of the wounded region (mean±S.D.)” value ([1]; EGF + 0.1 mM compound, 24th hour) of the same compound?
**A.** 0.24±0.05 mm2

**Q.** And the “area of the wounded region (mean±S.D.)” value ([1]; EGF + 0.1 mM compound, 36th hour)?
**A.** 0 mm2

**Q.** What about the “area of the wounded region (mean±S.D.)” value ([1]; EGF + 0.1 mM compound, 48th hour) of the same compound?
**A.** 0 mm2

**Q.** And the “effect on EGF-induced acceleration of cell restoration” value ([1]; compound 0.01-0.1 mM with EGF)?
**A.** further promoted the EGF-induced acceleration of cell restoration in a concentration-dependent fashion

**Q.** And the repairing effects ([1]; compound alone 0.01-0.1 mM, absence of EGF)?
**A.** did not show repairing effects in the absence of EGF

**Q.** And the “synthesis of DNA by the star cells” value (Ito (star) cells; [3])?
**A.** lowered depending on the amount of the invention compound

**Q.** What about the “synthesis of collagen by the star cells” value (Ito (star) cells; [3]) of the same compound?
**A.** lowered depending on the amount of the invention compound

**Q.** What about the “expression of αSM” value (Ito (star) cells; compound with b-FGF, quantity-dependent) of the same compound?
**A.** allowed to recover by the addition of the invention compound in a quantity-dependent manner

**Q.** What about the “expression of α2-smooth muscle actin (αSM)” value (Ito (star) cells; compound, absence of b-FGF) of the same compound?
**A.** lowered by the addition of the invention compound

**Q.** What about the “concentration of albumin in the supernatant” value (hepatocytes; 10 μM compound, with EGF) of the same compound?
**A.** no change was observed

**Q.** What about the “expression of mRNA (albumin)” value (hepatocytes; 10 μM compound, with EGF) of the same compound?
**A.** no change was observed

**Q.** And the “synthesis of DNA by the hepatocytes” value (hepatocytes; 10 μM compound, with EGF)?
**A.** significantly increased

**Q.** What about the “synthesis of DNA by the hepatocytes” value (hepatocytes; without EGF) of the same compound?
**A.** not recognized to promote the synthesis of DNA

**Q.** What does the source list for “bFGF: basic fibroblast growth factor; recombinant human bFGF (product of Genzyme Corporation) in Example 26”?
**A.** expression of αSM (Ito (star) cells; b-FGF alone): lowered by the presence of b-FGF; number of new blood vessels (M±SE) ([2]; bFGF alone 1 ng/ml): 4.1±0.4; number of new blood vessels (M±SE) ([2]; bFGF alone 10 ng/ml): 4.3±0.7; number of new blood vessels (M±SE) ([2]; bFGF alone 100 ng/ml): 6.1±1.1; formation of a hyaline cartilage matrix (bone defect (tibia)): in a small amount
